In PubChem BioAssay AID1918999 (Molecular Pharmacology Branch, DTP, NCI, 2023):
Each block holds one molecule with its values, some of them ahead of it.

System: 556581-035-R-J1-PDC complex spheroid growth
Assay: Anticancer human tumor 556581-035-R-J1-PDC patient-derived ovarian carcinoma cell line growth inhibition [AhR]
Conditions: for IC50: curve of first compound; for viability, T/C: stronger effect = lower value
Text: Multicellular complex tumor spheroid response to aryl hydrocarbon receptor antagonists in combination with a variety of drugs and investigational agents in selected tumor cell lines
The current study was undertaken to assess response to aryl hydrocarbon receptor antagonists in combination with standard-of-care drugs and investigational agents in solid tumor complex spheroid models. Complex spheroids include a stromal component modeled by human endothelial cells (HUVEC) and fibroblasts modeled by human mesenchymal stem cells (MSCs). The concentration ranges selected for each drug and investigational agent were based upon clinically achievable concentrations if the clinical Cmax of the agent was known.
Compounds. The drugs and investigational agents: BAY 2416964 (NSC825713), GNF351 (NSC835774), CH-223191 (NSC835775), CPI-455 (NSC825282), aza-TdCyd (NSC777586), decitabine (NSC127716), belinostat (NSC758774), entinostat (NSC756642), pevonedistat (NSC761192), tazemetostat (NSC777109), talazoparib (NSC765396), olaparib (NSC753686), selinexor (NSC780203), nedisertib (M3814, NSC802822), bortezomib (NSC756655), venetoclax (NSC766270), doxorubicin (NSC123127), elimusertib (BAY189344, NSC800525), ceralasertib (AZD6738, NSC777638), TAK-243 (NSC785004), alisertib (NSC759677), etoposide (NSC141540), topotecan (NSC609699), eribulin (NSC707389), gemcitabine (NSC613327), carboplatin (NSC241240), cisplatin (NSC119875), and SN-38 (NSC673596) were obtained from the National Cancer Institute (NCI) Developmental Therapeutics Program Chemical Repository (32). The FDA-approved anticancer drug set is available from the Developmental Therapeutics Program at https://dtp.cancer.gov/organization/dscb/obtaining/available plates.htm. […] The stock solutions were prepared in dimethyl sulfoxide (DMSO, Sigma-Aldrich, St. Louis, MO, cat. D2650), except for the platinum compounds which were prepared in saline (Quality Biological, Gaithersburg, MD, cat. 114-055-101), at 800-fold the tested concentration and stored at -70 degrees C prior to their use. All drugs and investigational agents were tested over a range starting from a high concentration at or near the clinical Cmax and decreasing in half-log increments. If the clinical Cmax for an agent had not been determined, the highest concentration tested was 10 microM (Table 1).
Cell Culture. All cells were maintained in an incubator at 37 degrees C and 5% CO2 with 95% humidity. The PDC lines were cultured according to standard operating procedures established by the NCI PDMR (https://pdmr.cancer.gov). Briefly, all PDCs were thawed and cultured in Matrigel-coated flasks prepared with a working solution of 1X Ham's F-12 nutrient mix, without supplementation (Invitrogen, Waltham, MA, cat. 11765054), 100 U/mL penicillin-streptomycin (Invitrogen, cat. 15140122), and 2.5% Matrigel (Corning Inc., Corning, NY, cat. 354248) for the first three passages. All PDCs were cultured in complete DMEM/F-12 media containing advanced DMEM/F-12 (Invitrogen, cat. 12634028), 4.9% defined fetal bovine serum, heat inactivated (HyClone Laboratories Inc., Logan, UT, cat. SH30070.03HI), 389 ng/mL hydrocortisone (Sigma-Aldrich, cat. H4001), 9.7 ng/mL human EGF recombinant protein (Invitrogen, cat. PHG0313), 23.4 microg/mL adenine (Sigma-Aldrich, cat. A2786), 97.3 U/mL penicillin-streptomycin (Invitrogen, cat. 15140122), 1.9 mM L-glutamine (Invitrogen, cat. 25030081), and 9.7 microM Y-27632 dihydrochloride (Tocris Bioscience, Bristol, United Kingdom, cat. 1254). The PDCs were cultured in complete DMEM/F12 media without 10 microM Y-27632 dihydrochloride for at least two passages prior to the screen. The established cell lines NCI-H1341 and […] were cultured in DMEM/F-12, HEPES (Invitrogen, cat. 11330032), 5% defined fetal bovine serum (HyClone Laboratories Inc., cat. SH30070.03), ITS premix universal culture supplement [insulin (5 microg/mL), transferrin (5 microg/mL), and selenious acid (5 ng/mL)] […]

[1] = second compound 0.1 µM, first compound 0.0316 µM
[2] = second compound 0.1 µM, first compound 0.1 µM
[3] = second compound 0.1 µM, first compound 0.316 µM
[4] = second compound 0.1 µM, first compound 1 µM
[5] = second compound 0.1 µM, first compound 3.16 µM
[6] = second compound 0.1 µM, first compound 10 µM
[7] = second compound 0.316 µM, first compound 0.0316 µM
[8] = second compound 0.316 µM, first compound 0.1 µM
[9] = second compound 0.316 µM, first compound 0.316 µM
[10] = second compound 0.316 µM, first compound 1 µM
[11] = second compound 0.316 µM, first compound 3.16 µM
[12] = second compound 0.316 µM, first compound 10 µM
[13] = second compound 1 µM, first compound 0.0316 µM
[14] = second compound 1 µM, first compound 0.1 µM
[15] = second compound 1 µM, first compound 0.316 µM
[16] = second compound 1 µM, first compound 1 µM
[17] = second compound 1 µM, first compound 3.16 µM
[18] = second compound 1 µM, first compound 10 µM
[19] = second compound 3.16 µM, first compound 0.0316 µM
[20] = second compound 3.16 µM, first compound 0.1 µM
[21] = second compound 3.16 µM, first compound 0.316 µM
[22] = second compound 3.16 µM, first compound 1 µM
[23] = second compound 3.16 µM, first compound 3.16 µM
[24] = second compound 3.16 µM, first compound 10 µM
[25] = second compound 10 µM, first compound 0.0316 µM
[26] = second compound 10 µM, first compound 0.1 µM
[27] = second compound 10 µM, first compound 0.316 µM
[28] = second compound 10 µM, first compound 1 µM
[29] = second compound 10 µM, first compound 3.16 µM
[30] = second compound 10 µM, first compound 10 µM
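Throughout, for viability, T/C: compound exposure lasted 7 days; 100% = DMSO vehicle control growth.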

IC50 (second compound 0.1 µM): 5 nM | IC50 (second compound 0.316 µM): 4.57 nM | IC50 (second compound 1 µM): 5.43 nM | IC50 (second compound 3.16 µM): 4.7 nM | IC50 (second compound 10 µM): 5.22 nM
SMILES: CC(C)CC(NC(=O)C(Cc1ccccc1)NC(=O)c1cnccn1)B(O)O (stereo not given) + CC(CO)NC(=O)c1cc(-c2ccc(Cl)cc2)nn(-c2cnn(C)c2)c1=O
viability, T/C (second compound 0.1 µM, first compound 0.000949 µM): 91.6% | viability, T/C (second compound 0.1 µM, first compound 0.003 µM): 88.4% | viability, T/C (second compound 0.1 µM, first compound 0.00949 µM): 1.95% | viability, T/C (second compound 0.1 µM, first compound 0.03 µM): 0.49% | viability, T/C (second compound 0.1 µM, first compound 0.0949 µM): 0.12% | viability, T/C (second compound 0.1 µM, first compound 0.3 µM): 0.33% | viability, T/C (second compound 0.316 µM, first compound 0.000949 µM): 106% | viability, T/C (second compound 0.316 µM, first compound 0.003 µM): 77.9% | viability, T/C (second compound 0.316 µM, first compound 0.00949 µM): 1.51% | viability, T/C (second compound 0.316 µM, first compound 0.03 µM): 2.26% | viability, T/C (second compound 0.316 µM, first compound 0.0949 µM): 0.2% | viability, T/C (second compound 0.316 µM, first compound 0.3 µM): 0.8% | viability, T/C (second compound 1 µM, first compound 0.000949 µM): 105% | viability, T/C (second compound 1 µM, first compound 0.003 µM): 99.7% | viability, T/C (second compound 1 µM, first compound 0.00949 µM): 3.31% | viability, T/C (second compound 1 µM, first compound 0.03 µM): 0.19% | viability, T/C (second compound 1 µM, first compound 0.0949 µM): 0.15% | viability, T/C (second compound 1 µM, first compound 0.3 µM): 0.27% | viability, T/C (second compound 3.16 µM, first compound 0.000949 µM): 85.7% | viability, T/C (second compound 3.16 µM, first compound 0.003 µM): 81% | viability, T/C (second compound 3.16 µM, first compound 0.00949 µM): 0.92% | viability, T/C (second compound 3.16 µM, first compound 0.03 µM): 2.07% | viability, T/C (second compound 3.16 µM, first compound 0.0949 µM): 1.26% | viability, T/C (second compound 3.16 µM, first compound 0.3 µM): 1.55% | viability, T/C (second compound 10 µM, first compound 0.000949 µM): 99.6% | viability, T/C (second compound 10 µM, first compound 0.003 µM): 94.2% | viability, T/C (second compound 10 µM, first compound 0.00949 µM): 2.36% | viability, T/C (second compound 10 µM, first compound 0.03 µM): 0.3% | viability, T/C (second compound 10 µM, first compound 0.0949 µM): 0.55% | viability, T/C (second compound 10 µM, first compound 0.3 µM): 0.95%

IC50 (second compound 0.1 µM): > 10000 nM | IC50 (second compound 0.316 µM): > 10000 nM | IC50 (second compound 1 µM): > 10000 nM | IC50 (second compound 3.16 µM): > 10000 nM | IC50 (second compound 10 µM): > 10000 nM
SMILES: COc1cc(Nc2ncc3c(n2)-c2ccc(Cl)cc2C(c2c(F)cccc2OC)=NC3)ccc1C(=O)O + CC(CO)NC(=O)c1cc(-c2ccc(Cl)cc2)nn(-c2cnn(C)c2)c1=O
viability, T/C [1]: 86% | viability, T/C [2]: 70.6% | viability, T/C [3]: 66% | viability, T/C [4]: 66.5% | viability, T/C [5]: 61.3% | viability, T/C [6]: 52.6% | viability, T/C [7]: 88.8% | viability, T/C [8]: 73.4% | viability, T/C [9]: 59% | viability, T/C [10]: 62.2% | viability, T/C [11]: 55.2% | viability, T/C [12]: 49.4% | viability, T/C [13]: 95.7% | viability, T/C [14]: 69.3% | viability, T/C [15]: 73.4% | viability, T/C [16]: 64.9% | viability, T/C [17]: 55.8% | viability, T/C [18]: 49.5% | viability, T/C [19]: 79.9% | viability, T/C [20]: 71.2% | viability, T/C [21]: 70.2% | viability, T/C [22]: 65.7% | viability, T/C [23]: 54% | viability, T/C [24]: 60.9% | viability, T/C [25]: 88.5% | viability, T/C [26]: 80.8% | viability, T/C [27]: 66% | viability, T/C [28]: 71.3% | viability, T/C [29]: 56.7% | viability, T/C [30]: 55.1%

IC50 (second compound 0.1 µM): 1180 nM | IC50 (second compound 0.316 µM): 1280 nM | IC50 (second compound 1 µM): 1470 nM | IC50 (second compound 3.16 µM): 1190 nM | IC50 (second compound 10 µM): 1080 nM
SMILES: O=C(C=Cc1cccc(S(=O)(=O)Nc2ccccc2)c1)NO + CC(CO)NC(=O)c1cc(-c2ccc(Cl)cc2)nn(-c2cnn(C)c2)c1=O
viability, T/C [1]: 96.6% | viability, T/C [2]: 88.9% | viability, T/C [3]: 75.1% | viability, T/C [4]: 53.6% | viability, T/C [5]: 27.9% | viability, T/C [6]: 3.75% | viability, T/C [7]: 94% | viability, T/C [8]: 91.2% | viability, T/C [9]: 80.6% | viability, T/C [10]: 56.2% | viability, T/C [11]: 25.7% | viability, T/C [12]: 3.23% | viability, T/C [13]: 105% | viability, T/C [14]: 96.8% | viability, T/C [15]: 88% | viability, T/C [16]: 63.6% | viability, T/C [17]: 24.9% | viability, T/C [18]: 2.84% | viability, T/C [19]: 98.7% | viability, T/C [20]: 93.7% | viability, T/C [21]: 74.1% | viability, T/C [22]: 54.1% | viability, T/C [23]: 28.1% | viability, T/C [24]: 3.83% | viability, T/C [25]: 105% | viability, T/C [26]: 104% | viability, T/C [27]: 75.8% | viability, T/C [28]: 53% | viability, T/C [29]: 24.3% | viability, T/C [30]: 4.22%
